# “Also recorded” adds a separate entry of the source. Ends that are not written are not given here.
# What was measured:
# [1] = design: method as in Reference 33 within 44; conditions: Merck's data on file; ref Reference 33 within 44; cited from earlier work
# GLP-1 and GIP = test: CSF GLP-1 and GIP levels in NHPs (both incretins, summary in text); type: in vivo, Macaca mulatta; conditions: CSF at 3 and 5 h after day 6 sitagliptin, NHP
# Method: (§1) Immediately thereafter, an oral glucose tolerance test was performed to stimulate incretin secretion. This is designated as time zero (i.e., 0) in Figs. 2, 4 and 5.
# (§2) Further samples were collected without the inhibitor for DPP-4 analysis to permit quantification of DPP-4 inhibition. Incretin levels were measured with the following assays: Active GLP-1 ((ver 2 kit) Meso Scale Diagnostic), Active GIP (ELISA kit—IBL America), DPP-4 activity was evaluated by fluorometric assay using a DPPIV/CD26 assay kit for biological samples ((BML-AK498-0001) Enzo Life Sciences, Farmingdale, NY).
# p-glycoprotein = conditions: in relation to renal clearance; cited from earlier work
# 6-OHDA lesioned rats = conditions: rats with unilateral medial forebrain bundle 6-OHDA lesion; cited from earlier work
# [2] = Plasma sitagliptin pharmacokinetics in nonhuman primates (LC-MS, noncompartmental analysis)
# Method: Animals included Macaca mulatta of 7 to 20 kg weight, mixed gender, 12 to 19 years of age (n = 5 to 7 per group). […] Commercially prepared monkey chow was distributed twice per day along with daily food enrichment, and water was available ad libitum. Monkeys were observed daily for food consumption and overall well-being.
# as §1, §2
# A noncompartmental approach to pharmacokinetic analysis was employed using Phoenix WinNonlin v8.3 (Certara Corp, Cary, NC). The maximum plasma concentration (Cmax) and the time of maximum plasma concentration (Tmax) were recorded as observed values. […] AUCINF (the AUC from time zero to infinity) was calculated by extrapolation by dividing Clast (the last measurable drug concentration) by the rate constant of the terminal phase, lZ (Kel). This constant was determined from the slope of the terminal phase of the concentration–time curve using uniformly weighted least squares as the estimation procedure and acceptance criteria of (i) adjusted r^2 > 0.8 and (ii) includes > 3 time points in the terminal phase.
# in vivo = conditions: both, Macaca mulatta
# [3] = cited from earlier work
# [4] = tested on: organic anion transporter 3 (hOAT3); conditions: in relation to renal clearance; cited from earlier work
# [5] = tested on: rat primary ventral mesencephalic cultures; test: 6-OHDA toxicity in rat primary ventral mesencephalic cultures (TH cell density); type: cell-based; conditions: rat primary VM cultures, 6-OHDA 100 µM 2 h; for Effect of co-administered DPP-4 inhibitor on protective response of GIP and GLP-1 (TH cell density): PF-00734,200 1 µM with GLP-1 or GIP 10 nM; for Effect on 6-OHDA-mediated reduction in TH cell density: GLP-1 or GIP 10 nM, fixed 22 h after washing
# Description: Primary cultures were generated from embryonic (E14-15) ventral mesencephalon (VM) brain tissue removed from fetuses of timed-pregnant Sprague–Dawley rats (Charles River Laboratories, Wilmington, MA), in line with published procedures with minor modifications. Briefly, the whole brain was removed aseptically, and a small piece of tissue containing the VM was separated. Blood vessels and meninges were detached, and remaining pooled VM tissues were gently trypsinized (0.25% (Invitrogen, Carlsbad, CA), 15 min at 37°C). Trypsin was removed with pre-warmed DMEM/F-12 (Invitrogen), and cells were dissociated by trituration and then counted and plated into 96-well (6.0 × 10^4/well) cell culture plates that were pre-coated with poly-D-lysine (Sigma-Aldrich). The culture plating medium was Dulbecco’s modified Eagle medium/F12 supplemented with 10% heat-inactivated fetal bovine serum, 1 mM L-glutamine, and 2% B27 (Invitrogen). VM cells were maintained at 37°C in a humidified atmosphere (5% CO2 and 95% air) and fed by exchanging 50% of media with feed media (Neurobasal medium, Invitrogen) with 0.5 mM L-glutamate and 2% B27 with antioxidants supplement on DIV (days in vitro) 3 and 5. On DIV7, VM cultures were fed with media containing B27 supplement minus antioxidants (Invitrogen). Thereafter, freshly prepared 6-OHDA (100 µM in 20 µM ascorbic acid saline solution) or saline (with 20 µM ascorbic acid) was added to the wells on DIV 10. Following 2-h incubation, cultures were washed with feed media plus ( −) AO B27 three times. DPP-4 inhibitor (PF-00734,200), incretins, or vehicle was added to the well at the last wash as a post-treatment strategy. Cells were returned to a 37°C incubator for 22 h and then fixed with 4% paraformaldehyde (PFA) for immunoreactivity evaluation.
# [6] = tested on: SH-SY5Y human neuroblastoma cells; test: 6-OHDA-mediated cell loss in SH-SY5Y cells (TOPRO-3 cell density); type: cell-based; conditions: 6-OHDA 100 µM 2 h, GLP-1 or GIP 10 nM, DPP-4 inhibitor 1 µM, read at 24 h
# Method: Five minutes later, the cells were treated with vehicle or freshly prepared 6-OHDA (100 µM) for 2 h. GIP, GLP-1, and DPP-4 inhibitor or vehicle were added to the media again after three washes. […] The cells were then washed in PBS for three times and, thereafter, were imaged using a Licor Odyssey IR scanner. Cell density in each well was analyzed by using Licor Odyssey In Cell Western analyses software v 3.0, as previously described [45].
# In our study, TOPRO-3 was applied to cells after fixation with 4% PFA. The cells were washed in PBS for three times and, thereafter, were imaged using a Licor Odyssey IR scanner. Under these conditions, it is likely that any dead cells were washed away before quantifying fluorescence.
# [7] = both, rhesus monkey, in vivo, po, 5 mg/kg
# [8] = both, rhesus monkey, in vivo, po, 20 mg/kg
# [9] = both, rhesus monkey, in vivo, po, 100 mg/kg
molecule,measurement,setting,value
N[C@@H](CC(=O)N1CCn2c(nnc2C(F)(F)F)C1)Cc1cc(F)c(F)cc1F [sitagliptin],Maximally well-tolerated sitagliptin dose in NHPs,[1],100 mg/kg
same,Elevation of CSF levels of GLP-1 and GIP vs placebo,GLP-1 and GIP,2.0- to 3.4 fold
same,Substrate for p-glycoprotein,p-glycoprotein,substrate
same,"Effect on dopaminergic neurons, dopamine levels and methamphetamine-mediated rotation",6-OHDA lesioned rats,mitigated the loss of dopaminergic neurons and dopamine levels
same,Tmax,"[2]; 20 mg/kg oral once daily, day 6, NHP plasma",2 h
same,Tmax,"[2]; both, Macaca mulatta, in vivo, po",2 h
same,AUC(0-inf),[2]; [7],8.81 µM·h
same,AUC(0-t),[2]; [7],7.83 µM·h
same,Cmax,[2]; [7],0.768 µM
same,half-life,[2]; [7],8.4 h
same,k el,[2]; [7],2.28e-05 s⁻¹
same,AUC(0-inf),[2]; [8],50.9 µM·h
same,AUC(0-t),[2]; [8],49.6 µM·h
same,Cmax,[2]; [8],7.06 µM
same,half-life,[2]; [8],5 h
same,k el,[2]; [8],3.87e-05 s⁻¹
same,AUC(0-inf),[2]; [9],214 µM·h
same,AUC(0-t),[2]; [9],193 µM·h
same,Cmax,[2]; [9],13.7 µM
same,Tmax,[2]; [9],2 to 8 h
same,half-life,[2]; [9],6.7 h
same,k el,[2]; [9],2.85e-05 s⁻¹
same,Cmax,"[2]; both, rhesus, Macaca mulatta, in vivo, po, 5 mg/kg",0.768 µM
same,Kp at 3 h,in vivo,0.01
same,Kp at 5 h,in vivo,0.01
same,log P,[3],1.5
same,Substrate for organic anion transporter 3 (hOAT3),[4],substrate
"O=C([C@@H]1C[C@H](N2CCN(c3ncccn3)CC2)CN1)N1CCC(F)(F)C1 [PF-00734,200, gosogliptin]",Effect of co-administered DPP-4 inhibitor on protective response of GIP and GLP-1 (TH cell density),[5],significantly potentiated
same,Effect of co-administered DPP-4 inhibitor on protective response of GIP and GLP-1 (TH cell density),[5]; listed as DPP-4I,further reduced
same,"Effect on dopaminergic neurons, dopamine levels and methamphetamine-mediated rotation",6-OHDA lesioned rats,mitigated the loss of dopaminergic neurons and dopamine levels
same,Effect on 6-OHDA-mediated cell loss (TOPRO-3 fluorescence cell density),[6]; listed as DPP-4I,ameliorated
same,Effect on 6-OHDA-mediated cell loss (TOPRO-3 fluorescence cell density),[6]; listed as DPP-4 inhibitor,partially mitigated
"glucagon-like peptide-1 (HAEGTFTSDVSSYLEGQAAKEFIAWLVKGR; ends and bridges not checked; UniProt P01275 98-127, looked up) [GLP-1, endogenous incretin hormone added to cultures at 10 nM]",Effect on 6-OHDA-mediated reduction in TH cell density,[5],partially but significantly mitigated
same,Effect on 6-OHDA-mediated reduction in TH cell density,[5]; listed as GLP‐1,significant amelioration
same,Effect on 6-OHDA-mediated cell loss (TOPRO-3 fluorescence cell density),[6],partially mitigated; also recorded: ameliorated
glucose-dependent insulinotropic polypeptide [GIP],Effect on 6-OHDA-mediated reduction in TH cell density,[5],partially but significantly mitigated; also recorded: significant amelioration
same,Effect on 6-OHDA-mediated cell loss (TOPRO-3 fluorescence cell density),[6],significantly antagonized; also recorded: ameliorated; also recorded: fully protected against cell loss
